Marks after values point to notes of the source that are not given here.
How the values were obtained:
Assay type in all cases: in vivo
[1] = system: cigarette smoke induced emphysema in mice (C57BI/6J); assay: Chronic model of cigarette smoke exposure in mice: lung desmosine content by HPLC; conditions: for Desmosine (lung content): 7 months, mean ± SEM
Procedure: (§1) Effects of ROFLUMILAST in an Chronic Model of Cigarette Smoke Exposure in Mice
(§2) Eighty 6 week old male mice of the strain C57BI/6J (supplied Harlan-Italy, Udine, Italy) were used in this study. The mice were housed in groups of 7 to 10 in macrolon cages. Room temperature was kept at 22° to 24° C.; and relative humidity at 40 to 50%; food and water were supplied ad libitum. All animal experimentation was approved by the Local Ethical Committee of the University of Siena.
(§3) ROFLUMILAST was given p.o. by gavage in a volume of 10 μl suspension/g body weight 60 min prior to either air or smoke exposure.
(§4) The methodology for chronic smoke exposure has been previously described in detail (Cavarra et al; Am J Respir Crit Care Med 2001; Vol 164, pp 886-890). Briefly, mice were exposed to either the smoke of 3 cigarettes/day (commercial Virginia filter cigarettes: 12 mg of tar and 0.9 mg of nicotine), 5 days/week or to room air (controls) for 7 months, in especially designed macrolon cages (Tecniplast, Buguggiate, Italy). These cages (42.5×26.6×19 cm) are equipped with a disposable filter cover which enables the air to flow out of the cages and thus to be continuously renewed. The smoke was produced by the burning of a cigarette and was introduced into the chamber with the airflow generated by a mechanical ventilator (7025 Rodent Ventilator, Ugo Basile, Biological Research Instruments, Comerio, Italy), at a rate of 33 ml /min. A second mechanical ventilator was used to provide room air for dilution (1:8) of the smoke-stream. With this methodology the mice were exposed to the smoke originated by three cigarettes once a day for the duration of 90 min. In a pilot study, the efficiency of the smoke delivery system was tested in 12 mice by measuring blood HbCO by co-oxymetry.
Lung desmosine concentration was determined by High Pressure Liquid Chromatography (HPLC) essentially according to Cumiskey et al. (J Chromatogr B 1995, Vol 668, pp 199-207). Briefly, lung samples were homogenized in 5% TCA (1:9, w:v) and centrifuged for 10 min. at 4000 g at 4° C. The pellet was then washed twice with distilled water and hydrolyzed for 16 h at 130° C. in 6 N HCl.
After hydrolysis, the samples were centrifuged for 10 min at 2000 g and filtered through a FP 030/3 0.2 μm filter (Schleicher & Schuell). Aliquots (0.5 ml) of samples were desiccated under liquid nitrogen and then suspended in 0.6 ml 0.1 M sodium phosphate, pH 3.73.
The HPLC apparatus consisted of a single pump (Pro-Star 210, Varian) delivering isocratic mobile phase, of which 80% was 0.1 M dibasic sodium phosphate adjusted to pH 3.75 with phosphoric acid; the remaining 20% was acetonitrile. Sodium dodecyl sulphate (SDS) was added to a final concentration of 10 mM. The pH was re-adjusted after the addition of acetonitrile and SDS. The flow rate was 0.8 ml/min through a C18 (reverse phase MSORV 100A, Varian). Injection volumes of 100 μl of test samples diluted in 0.1 M sodium phosphate buffer, pH 3.75 was used to detect desmosine concentration. Detection of desmosine was by absorbance at 275 nm. Peak purity was checked with a Pro-Star 330 photodiode array detector (Varian) scanning from 200 to 400 nm. Isodesmosine eluted at approx. 9 min, and desmosine approx. at 12 min. Peak height, appopriate external calibration curves and internal standards were used to quantitate desmosine in unknown samples. Desmosine standards were from Elastin Co. (USA).
(§5) All data were analyzed using GraphPad Prism software (GraphPad Software, San Diego, Calif., USA). For each parameter the values of the individual animals were averaged and the SEM was calculated. The significance of the differences was calculated using parametric one-way analysis of variance (ANOVA) with subsequent Bonferroni's multiple comparison post-test for selected pairs. A p value of <0.05 was considered significant.

[2] = system: C57BI/6J mice; assay: Chronic model of cigarette smoke exposure in mice: mortality; conditions: all groups, ROFLUMILAST 1 or 5 mg/kg p.o., 7 months
Procedure: as §2, §3
as §4, with “A second mechanical ventilator was used to provide room air for dilution (1:8) of the smoke-stream. With this methodology the mice were exposed to the smoke originated by three cigarettes once a day for the duration of 90 min. In a pilot study, the efficiency of the smoke delivery system was tested in 12 mice by measuring blood HbCO by co-oxymetry.” left out

[3] = system: cigarette smoke induced emphysema in mice (C57BI/6J); assay: Chronic model of cigarette smoke exposure in mice: morphometric assessment of emphysema (Lm, ISA); conditions: for Lm (mean linear intercept) / ISA (internal surface area of the lung): 7 months, mean ± SEM; for ISA (internal surface area of the lung): ISA=4VL/Lm; for Inhibition of emphysema formation (Lm and ISA), in words: smoke-exposed
Procedure: as §1, §2, §3, §4
Seven months after chronic exposure to room air or cigarette smoke (24 h after last exposure), 5 to 12 animals of each group, were anesthetized with ether and then exsanguinated by severing the abdominal aorta. The lungs were excised and fixed intratracheally with buffered formalin (5%) at a constant pressure of 20 cm H2O for at least 24 hours. Post-fixation lung volume (VL) was measured by water displacement. All lungs were then dehydrated, cleared in toluene and embedded under vacuum in paraffin. Two 7-μm transversal sections were made and stained with hematoxylin-eosin and/or periodic acid-Schiff (PAS). Two pathologists blinded to the exposure protocol carried out the morphological and morphometrical evaluation.
Morphometric assessment of emphysema included determination of the average inter-alveolar distance (mean linear intercept: Lm) and internal surface area estimated by the Lm method at postfixation lung volume. For the determination of the Lm for each pair of lungs, 40 histological fields were evaluated both vertically and horizontally. Examination of these numbers of fields meant that practically the entire lung area was evaluated. Internal surface area of the lung (ISA) was calculated by according to the formula: ISA=4VL/Lm.
as §5

[4] = air exposure, ROFLUMILAST 5 mg/kg p.o.
[5] = chronic model of cigarette smoke induced emphysema in mice, dose not given
[6] = cigarette smoke exposure, ROFLUMILAST 1 mg/kg p.o.
[7] = cigarette smoke exposure, ROFLUMILAST 5 mg/kg p.o.

O=C(Nc1c(Cl)cncc1Cl)c1ccc(OC(F)F)c(OCC2CC2)c1 [ROFLUMILAST, 3-cyclopropylmethoxy-4-difluoro-methoxy-N-(3,5-dichloropyrid-4-yl)benzamide] was tested, and the “Desmosine (lung content)” value [1, 4] was 2.91 ± 0.08 μg/lung, the “Effect on drop of the desmosine content in the lung, in words” value [1, 5] was “can prevent the drop of the desmosine content in the lung” and the “Desmosine (lung content)” value [1, 6] was 2.45 ± 0.11 μg/lung. For the same compound, the “Desmosine (lung content)” value [1, 7] was 2.98 ± 0.10 μg/lung, the “Lung desmosine content compared to air-exposed, in words” value ([1]; smoke-exposed, ROFLUMILAST 1 mg/kg) was “significantly lower lung desmosine content” and the “Lung desmosine content compared to air-exposure, in words” value ([1]; smoke-exposed, ROFLUMILAST 5 mg/kg) was “Unchanged lung desmosine content”. For the same compound, the Mortality [2] was “No animal died”, the “Lm (mean linear intercept)” value [3, 4] was 33.48 ± 0.36 μm and the “ISA (internal surface area of the lung)” value [3, 4] was 1342.70 ± 23.39## cm^2. For the same compound, the “Effect on increase of Lm, in words” value [3, 5] was “can prevent the increase of Lm”, the “Lm (mean linear intercept)” value [3, 6] was 40.79 ± 0.87 μm and the “ISA (internal surface area of the lung)” value [3, 6] was 1079.78 ± 35.61** cm^2. For the same compound, the “Lm (mean linear intercept)” value [3, 7] was 34.28 ± 0.31 μm, the “ISA (internal surface area of the lung)” value [3, 7] was 1292.21 ± 29.63# cm^2 and the “Inhibition of emphysema formation (Lm and ISA), in words” value ([3]; ROFLUMILAST 1 mg/kg) was “unable to inhibit emphysema formation”. For the same compound, the “Inhibition of emphysema formation (Lm and ISA), in words” value ([3]; ROFLUMILAST 5 mg/kg) was “gross inhibition of emphysema formation”.

Source: patent US20070254928A1, “Use of Roflumilast for the Prophylaxis or Treatment of Emphysema” (Altana Pharma AG, priority 2004, published 2007)
